Reference: EP0068268A1, “Enhancer of anti-tumour effect” (Yamasa Shoyu Kabushiki Kaisha, priority 1981, dated 1983)
Like-named read-outs stand apart in the source and are kept apart here.

What was measured:
Acute toxicity test = experiment: Acute toxicity test; parameters: species or system ICR mice; conditions: mouse, in vivo, ip
Procedure: Various quantities of N -butyryl-3'-dAdo were administered intraperitoneally to ICR mice (male, 8-weeks old, 10 mice for each group) in doses of 250 mg to 1,000 mg/kg, and the mice were subjected to observation for a week.

EMT-6 tumors [1] = experiment: Radiosensitizing effect on experimental tumors in mice (cure percentages and TCD50, Experiment 3); type: in vivo, BALB/c-strain female mice; conditions: for TCD50: 100 mg/kg intraperitoneally after 32 MeV electron beam irradiation, control 2400; for Cure number/Number treated (%) / Cure number/Number treated: 100 mg/kg intraperitoneally after irradiation; for Cure number/Number treated (%): cure percentage; for Cure number/Number treated: observation longer than 90 days; for TCD50 (ratio): ratio to control (1.0)
Procedure: EMT-6 tumor cells ([…]) were inoculated intradermally into the right thighs of BALB/c-strain female mice (8 weeks old). When the tumor sizes reached 5.5 to 8.0 mm after inoculation of the tumor cells, irradiation was locally carried out with 1,000 rad to 2,700 rad of 32 MeV electron beam under no anesthesia, and thereafter 3'-dAdo and N^6-butyryl-3'-dAdo, each dissolved in physiological saline solution, were administered intraperitoneally in a dose of 100 mg/kg. After the treatments, observation was continued for longer than 90 days, and the cure percentages were determined for comparison with the control group. [formula] [formula]

EMT-6 tumors [2] = experiment: Enhancement of the effect of anti-tumor agents on experimental tumors in mice (Experiment 5); type: in vivo, BALB/c-strain mice; conditions: 14th day after treatment
Procedure: EMT-6 tumor cells (1 x 10^6) were inoculated intradermally into the right thighs of BALB/c-strain mice (8 weeks old). On the 12th day after inoculation of the tumor cells and thereafter, each chemical in a physiological saline solution was administered intrapenitoneally to each mouse four times a week in the indicated doses for respective agents. The pharmaceutical agents of the present invention were administered one hour after administration of the anti-tumor agents. After commencement of the treatment with pharmaceutical agents, the tumor sizes were measured every other day and compared with those of the control group.

RIF1 tumors = experiment: Radiosensitizing effect on experimental tumors in mice (tumor size after irradiation, Experiment 4); type: in vivo, C3H/Heston-strain female mice; conditions: for Mean tumor diameter (mm): n=7; for Sensitizing effect: relative to irradiation alone
Procedure: RIF1 tumor cells ([…]) were inoculated intradermally into the right thighs of C3H/Heston-strain female mice (8 weeks old). When the tumor sizes reached 6.0 to 10.0 mm after inoculation of the tumor cells, irradiation was carried out with 2,500 rad/min. of an electron beam, and thereafter N^6-acetyl-3'-dAdo, N^6-butyryl-3'-dAdo, N^6-hexanoyl-3'-dAdo, and N - octanoyl-3'-dAdo, each dissolved in physiological saline solution, were administered intraperitoneally in a dose of 100 mg/kg. After the treatments, the tumor sizes in terms of diameters in three-axial directions were measured on the 10th day and the 20th day (9th day and the 21st day only in case of N^6-butyryl-3'-dAdo).

EMT-6 tumors [3] = experiment: Radiosensitizing effect on experimental tumor in mice (tumor size after local irradiation, Experiment 2); type: in vivo, BALB/c-strain female mice; conditions: for Mean tumor diameter (mm): 1,500 rad 32 MeV electron beam, n = 9; for Sensitizing effect: diameter ratio with agent / diameter ratio with irradiation alone
Procedure: EMT-6 tumor cells (2 x 10^5) were inoculated intradermally into the right thighs of BALB/c-strain female mice (8 weeks old, 6 or more mice for each group). When the tumor size reached 5.5 to 7.5 mm in diameter after inoculation of the tumor cells, local irradiation with a 32 MeV electron beam was carried out at 1,500 rad under no anesthesia and thereafter N^6-butyryl-3'-dAdo dissolved in physiological saline solution, was administered intraperitoneally to each mouse in 100 mg/kg. On the 9th day and 20th day after these treatments, t tumor sizes were measured in tri-dimensional diameters, and compared with the control group with respect to the following items: [formula] [formula] The results are shown in Table 2, in which "cure" means that the tumors completely vanished during the observation period.

[4] = tested on: Chinese hamster-HA-1 cells; experiment: Radiosensitizing effect on the tumor cells in culture (PLDR inhibition, colony forming ability after X-rays); type: cell-based
Procedure: Cells under stationary phase, prepared by planting 2 x 10^5 cells/well of Chinese hamster-HA-1 cells in a multi-well dish and exchanging cultural medium every day starting on the third day and thereafter were irradiated with 1,000 R of X-rays. Immediately after radiation, N6-butyryl-3'-dAdo in Hanks' balanced salt solution were administered. Then, after elapse of various times, the cells were taken off with trypsin, and a suitable number of cells were transferred into petri dishes for testing colony forming ability and plating efficiencies. The percentages of survival were calculated with corrections by the plating efficiencies with the pharmaceutical agents alone.

[5] = 10th day after treatment, 2500 rad, then 100 mg/kg intraperitoneally
[6] = 20th day after treatment, 2500 rad, then 100 mg/kg intraperitoneally
[7] = 20th day after treatment, but 21st day for this compound
[8] = column head 10th day after treatment, but 9th day for this compound
[9] = FT-207 100mg/kg x 7 plus enhancer 50mg/kg x 7

Structure (SMILES): Nc1ncnc2c1ncn2[C@@H]1O[C@H](CO)C[C@H]1O [3'-dAdo, 3'-deoxyadenosine, reference compound]
- LD50 at 168 h (Acute toxicity test; intraperitoneally, ICR mice male, observation for a week, read-out: LD50): 280 mg/kg
- TCD50 (EMT-6 tumors [1]): 1600
- Cure number/Number treated (%) (EMT-6 tumors [1]; 1,000 rad): 17%
- Cure number/Number treated (EMT-6 tumors [1]; 1,000 rad): 3/18
- Cure number/Number treated (%) (EMT-6 tumors [1]; 1,500 rad): 48%
- Cure number/Number treated (EMT-6 tumors [1]; 1,500 rad): 14/29
- Cure number/Number treated (%) (EMT-6 tumors [1]; 2,100 rad): 79%
- Cure number/Number treated (EMT-6 tumors [1]; 2,100 rad): 11/14
- Cure number/Number treated (%) (EMT-6 tumors [1]; 2,700 rad): 67%
- Cure number/Number treated (EMT-6 tumors [1]; 2,700 rad): 10/15
- TCD50 (ratio) (EMT-6 tumors [1]): 0.67

Structure (SMILES): O=c1[nH]c(=O)n(C2CCCO2)cc1F (stereo not drawn) [FT-207, 1-(2-tetrahydrofuryl)-5-fluorouracil, reference compound]
- Diameter ratio, value in brackets (relative to control = 1.00) (EMT-6 tumors [2]; anti-tumor agent alone, 100mg/kg x 7): 0.76
- Mean tumor diameter (mm) (EMT-6 tumors [2]; anti-tumor agent alone, 100mg/kg x 7 intraperitoneally, n = 4): 7.80±1.64 mm

Structure (SMILES): CC(=O)Nc1ncnc2c1ncn2[C@@H]1O[C@H](CO)C[C@H]1O [N^6-acetyl-3'-dAdo]
- Diameter ratio (RIF1 tumors; [5]): 1.12±0.06
- Mean tumor diameter (mm) (RIF1 tumors; [5]): 7.86±0.55 mm
- Sensitizing effect (RIF1 tumors; 10th day after treatment): 0.95
- Diameter ratio (RIF1 tumors; [6]): 1.49±0.06
- Mean tumor diameter (mm) (RIF1 tumors; [6]): 10.39±0.51 mm
- Sensitizing effect (RIF1 tumors; 20th day after treatment): 0.84

Structure (SMILES): CCCC(=O)Nc1ncnc2c1ncn2[C@@H]1O[C@H](CO)C[C@H]1O [N^6-butyryl-3'-dAdo]
- LD50 at 168 h (Acute toxicity test): 710 mg/kg
- TCD50 (EMT-6 tumors [1]): 1080
- Cure number/Number treated (%) (EMT-6 tumors [1]; 1,000 rad): 40%
- Cure number/Number treated (EMT-6 tumors [1]; 1,000 rad): 6/15
- Cure number/Number treated (%) (EMT-6 tumors [1]; 1,500 rad): 65%
- Cure number/Number treated (EMT-6 tumors [1]; 1,500 rad): 13/20
- Cure number/Number treated (%) (EMT-6 tumors [1]; 2,100 rad): 93%
- Cure number/Number treated (EMT-6 tumors [1]; 2,100 rad): 14/15
- Cure number/Number treated (%) (EMT-6 tumors [1]; 2,700 rad): 100%
- Cure number/Number treated (EMT-6 tumors [1]; 2,700 rad): 16/16
- TCD50 (ratio) (EMT-6 tumors [1]): 0.45
- Diameter ratio (RIF1 tumors; [7]): 1.35±0.08
- Mean tumor diameter (mm) (RIF1 tumors; 20th day after treatment, but 21st day for this compound, 2500 rad, then 100 mg/kg intraperitoneally): 10.28±0.36 mm
- Sensitizing effect (RIF1 tumors; [7]): 0.76
- Diameter ratio (RIF1 tumors; [8]): 0.90±0.08
- Mean tumor diameter (mm) (RIF1 tumors; column head 10th day after treatment, but 9th day for this compound, 2500 rad, then 100 mg/kg intraperitoneally): 6.71±0.63 mm
- Sensitizing effect (RIF1 tumors; [8]): 0.76
- Mean tumor diameter (mm) (EMT-6 tumors [3]; 9 days after treatment, then 100 mg/kg intraperitoneally): 5.36±1.13 mm
- Diameter ratio (EMT-6 tumors [3]; 9 days after treatment, 1,500 rad, then 100 mg/kg intraperitoneally): 0.83±0.18
- Sensitizing effect (EMT-6 tumors [3]; 9 days after treatment): 0.86
- Mean tumor diameter (mm) (EMT-6 tumors [3]; 20 days after treatment, then 100 mg/kg intraperitoneally): 0.0±0.0 mm
- Cured cases (EMT-6 tumors [3]; 20 days after treatment, cure = tumors completely vanished during the observation period, 1,500 rad + 100 mg/kg i.p.): 9/9
- Sensitizing effect (EMT-6 tumors [3]; 20 days after treatment): 0.00
- Diameter ratio (mm) (EMT-6 tumors [2]; [9]): 0.97±0.23
- Diameter ratio, value in brackets (relative to control = 1.00) (EMT-6 tumors [2]; [9]): 0.62
- Mean tumor diameter (mm) (EMT-6 tumors [2]; FT-207 100mg/kg x 7 plus enhancer 50mg/kg x 7 given one hour later, n = 5): 6.72±1.69 mm
- Diameter ratio (mm) (EMT-6 tumors [2]; enhancer alone, 50mg/kg x 7): 1.36±0.32
- Diameter ratio, value in brackets (relative to control = 1.00) (EMT-6 tumors [2]; enhancer alone, 50mg/kg x 7): 0.87
- Mean tumor diameter (mm) (EMT-6 tumors [2]; enhancer alone, 50mg/kg x 7 intraperitoneally, n = 5): 9.92±2.45 mm
- Enhancing effect (EMT-6 tumors [2]; ratio in combination / (ratio anti-tumor agent alone x ratio enhancer alone), FT-207 100mg/kg x 7 plus enhancer 50mg/kg x 7): 0.94
- Plating efficiency (%) After 1 hour ([4]; 40 µg/ml given immediately after 1,000 R of X-rays, stationary phase cells, 1 hour after irradiation): 1.4%
- Plating efficiency (%) After 4 hours ([4]; 40 µg/ml given immediately after 1,000 R of X-rays, stationary phase cells, 4 hours after irradiation): 2.2%
- Plating efficiency (%) After 7 hours ([4]; 40 µg/ml given immediately after 1,000 R of X-rays, stationary phase cells, 7 hours after irradiation): 2.4%
- inhibition of repair (PLDR) after irradiation with X-rays ([4]; result in words, from Table 1): inhibit repair (PLDR)
- toxicity, as examined by plating efficiencies ([4]; result in words, agent alone): Substantially no toxicity was observed

Structure (SMILES): CCCCCC(=O)Nc1ncnc2c1ncn2[C@@H]1O[C@H](CO)C[C@H]1O [N^6-hexanoyl-3'-dAdo]
- Diameter ratio (RIF1 tumors; [5]): 1.11±0.05
- Mean tumor diameter (mm) (RIF1 tumors; [5]): 7.90±0.47 mm
- Sensitizing effect (RIF1 tumors; 10th day after treatment): 0.94
- Diameter ratio (RIF1 tumors; [6]): 1.46±0.05
- Mean tumor diameter (mm) (RIF1 tumors; [6]): 10.37±0.42 mm
- Sensitizing effect (RIF1 tumors; 20th day after treatment): 0.82

Structure (SMILES): CCCCCCCC(=O)Nc1ncnc2c1ncn2[C@@H]1O[C@H](CO)C[C@H]1O [N^6-octanoyl-3'-dAdo]
- Diameter ratio (RIF1 tumors; [5]): 1.04±0.04
- Mean tumor diameter (mm) (RIF1 tumors; [5]): 7.50±0.37 mm
- Sensitizing effect (RIF1 tumors; 10th day after treatment): 0.88
- Diameter ratio (RIF1 tumors; [6]): 1.33±0.02
- Mean tumor diameter (mm) (RIF1 tumors; [6]): 9.61±0.46 mm
- Sensitizing effect (RIF1 tumors; 20th day after treatment): 0.75
